Experimental data published in paper PMC8745263 (International Journal of Molecular Sciences, 2021).
Entries after “also recorded” stand apart in the source; their conditions may differ. Square brackets hold non-standard residues; d marks the D form. Peptide text beside a SMILES is read from it. Met(O) = CS(=O)CC[C@H](N)C(=O)O

Legend:
[1] = target: T1, APEH partially purified from human blood cells (Homo sapiens, UniProt P13798); assay: Treatment of peptides with APEH and assessment of proteolysis by LC-MS; assay type: biochemical; details: 10 nmol/200 μL peptide, APEH 0.7 μg, 37 °C, 48 h; for % fragment cleaved on carboxy side of H59 (Ac-...HTH, lacking LVQQA), percentage of the initial substrate / % fragment cleaved on carboxy side of Q62 (Ac-...HTHLVQ, lacking QA), percentage of the initial substrate / % intact peptide left after APEH exposure (percentage of the initial substrate): Tris-HCl 25 mM pH 7.5, EIC peak areas, average of three independent experiments; for % Degradation (overall % of peptide degraded upon exposure to APEH): sum of fragment % of Table 2(a), Tris-HCl 25 mM pH 7.5, N.D. = not degraded
T1 construct: incubated with APEH partially purified from human blood cells; from tissue; host or cells: human red blood cells (erythrocyte hemolysate from donors' blood)
T1 sequence (P13798 1-732): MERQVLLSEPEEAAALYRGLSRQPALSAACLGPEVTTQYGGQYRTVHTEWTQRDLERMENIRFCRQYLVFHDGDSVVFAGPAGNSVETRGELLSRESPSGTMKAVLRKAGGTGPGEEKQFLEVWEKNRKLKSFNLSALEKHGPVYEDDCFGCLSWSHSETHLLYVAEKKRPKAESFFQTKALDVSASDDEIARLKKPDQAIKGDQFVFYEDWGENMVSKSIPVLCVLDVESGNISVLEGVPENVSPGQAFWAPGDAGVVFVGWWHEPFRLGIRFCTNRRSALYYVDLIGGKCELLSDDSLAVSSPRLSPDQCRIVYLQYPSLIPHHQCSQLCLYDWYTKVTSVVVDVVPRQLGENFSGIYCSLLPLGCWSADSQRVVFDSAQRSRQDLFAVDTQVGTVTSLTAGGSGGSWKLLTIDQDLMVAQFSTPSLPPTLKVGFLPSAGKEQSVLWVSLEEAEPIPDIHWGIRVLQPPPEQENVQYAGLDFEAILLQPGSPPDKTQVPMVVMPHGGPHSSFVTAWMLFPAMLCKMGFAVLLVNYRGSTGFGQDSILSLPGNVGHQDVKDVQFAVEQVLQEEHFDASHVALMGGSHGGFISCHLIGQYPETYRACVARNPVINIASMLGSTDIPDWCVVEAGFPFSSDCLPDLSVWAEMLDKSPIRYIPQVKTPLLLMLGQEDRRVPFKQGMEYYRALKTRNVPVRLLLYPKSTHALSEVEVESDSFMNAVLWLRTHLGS
Method: In order to identify the potential cleavage sites of APEH on the oxidized GDF11[48-64], the peptide was incubated alone or in combination with the enzyme and the corresponding reaction mixtures were analyzed by LC-MS. The same experiments were performed using the non-oxidized analogues as control.
Blood samples were taken from donors using syringes with heparin. In accordance with ethical principles stated in the Declaration of Helsinki, as well as with approved national and international guidelines for human research, a written informed consent was obtained from participants. The erythrocytes were separated from the plasma by centrifugation at 1800× g for 5 min at 4 °C and washed twice with an isotonic solution (10 mM Tris-HCl pH 7.6, […]; 4 °C). Lysis of erythrocytes was carried out by incubation in hypotonic solution (25 mM Tris/HCl, pH 7.5) for 30 min on ice. The hemolysate was obtained by centrifugation of the lysate at 9200× g for 40 min at 4 °C. Then, the ‘soluble fraction’ was loaded onto a DEAE Sepharose Fast Flow column, connected to an AKTA FPLC system (Amersham Biosciences, Amersham, UK), previously equilibrated in 25 mM Tris-HCl (pH 7.5) (buffer A). The bound proteins were eluted using a linear ionic strength gradient (0–100%) of 1 M NaCl in buffer A at a flow rate of 1 mL min^−1. The active fractions were collected, pooled, dialyzed against 25 mM Tris-HCl pH 7.5 and loaded on a Superdex 200 PC 3.2/30 column (Pharmacia Biotech, Stockholm, Sweden) connected to a SMART System (Pharmacia Biotech, Stockholm, Sweden). The bound proteins were eluted with 25 mM Tris-HCl buffer, pH 7.5, containing 50 mM NaCl, at a flow rate of 0.1 mL min^−1. The active fractions were collected, pooled, dialyzed against 25 mM Tris-HCl pH 7.5 and stored in the same buffer supplemented with 5% glycerol. Enzyme purification was monitored using Ac-Met-7-amino-4-methylcoumarin (AMC) as substrate. Active fractions were analyzed by SDS-PAGE (12%) in order to evaluate the enrichment of the protein during the various purification steps. The protein was also characterized by Western Blot analysis. Aliquots of protein samples were subjected to SDS-PAGE (8%), and then electroblotted onto PVDF membranes (ImmobilonTM, Millipore, Milan, Italy). Membranes were next incubated with the specific primary antibody (sc-102311, 1:5000, Santa Cruz Biotechnology, USA) and then with the horseradish peroxidase-conjugated secondary antibody for 1 h at 37 °C (1:5000, Santa Cruz Biotechnology, Dallas, TX, USA). The immune complexes formed were visualized by enhanced chemiluminescence and autoradiography, according to the manufacturer’s protocol (Amersham Biosciences, Amersham, UK). Molecular mass of the native enzyme was established by gel filtration chromatography on a Superdex 200 PC 3.2/30 column (Pharmacia Biotech, Stockholm, Sweden), connected to a SMART system (Pharmacia Biotech, Stockholm, Sweden), and calibrated with BioRad gel filtration standards (BioRad, Milano, Italy; code 151-1901). The enzyme inhibition assay was performed on APEH preparation using the selective and potent inhibitor AA74-1 (SML0358, Sigma-Aldrich, Milano, Italy). Mixtures containing appropriate amount of inhibitor (62 µM) and APEH sample (0.7 μg) were pre-incubated for 30 min at 37 °C; then the substrate Ac-Met-7-amino-4-methylcoumarin (AMC) was added to the assay mixture and the enzymatic activity was followed as previously described. Control samples were prepared by pre-incubating the same amounts of APEH without the inhibitor and then assayed following the same procedure.
In total, 10 nmol/200 μL of each molecule was incubated with APEH partially purified from human blood cells (0.7 μg, 24.000 total units) at 37 °C for 48 h in Tris-HCl 25 mM pH 7.5. […]

APEH = APEH partially purified from human blood cells (0.7 μg, 24.000 total units) in Tris-HCl 25 mM pH 7.5; details: 37 °C, up to 48 h

Molecule | % fragment cleaved on carboxy side of H59 (Ac-...HTH, lacking LVQQA), percentage of the initial substrate [1] | % fragment cleaved on carboxy side of Q62 (Ac-...HTHLVQ, lacking QA), percentage of the initial substrate [1] | % intact peptide left after APEH exposure (percentage of the initial substrate) [1] | % Degradation (overall % of peptide degraded upon exposure to APEH) [1] | cleaved bond (APEH) | also measured
CC(=O)N[C@@H](CCC(=O)O)C(=O)N[C@@H](Cc1ccc(O)cc1)C(=O)N[C@@H](CC[S+](C)[O-])C(=O)N[C@@H](C)C(=O)N[C@@H](CC[S+](C)[O-])C(=O)N[C@@H](CCC(N)=O)C(=O)N[C@@H](CCCCN)C(=O)N[C@@H](Cc1ccc(O)cc1)C(=O)N1CCC[C@H]1C(=O)N[C@@H](Cc1c[nH]cn1)C(=O)N[C@H](C(=O)N[C@@H](Cc1c[nH]cn1)C(=O)N[C@@H](CC(C)C)C(=O)N[C@H](C(=O)N[C@@H](CCC(N)=O)C(=O)N[C@@H](CCC(N)=O)C(=O)N[C@@H](C)C(N)=O)C(C)C)[C@@H](C)O (stereo partly drawn) [GDF11[48-64] F51A ox] (Ac-EY[Met(O)]A[Met(O)]QKYPHTHLVQQA-NH2) | 11.7% | 3.3% | 85.0% | 15.0% | – | –
CC(=O)N[C@@H](CCC(=O)O)C(=O)N[C@@H](Cc1ccc(O)cc1)C(=O)N[C@@H](CC[S+](C)[O-])C(=O)N[C@@H](C)C(=O)N[C@@H](C)C(=O)N[C@@H](CCC(N)=O)C(=O)N[C@@H](CCCCN)C(=O)N[C@@H](Cc1ccc(O)cc1)C(=O)N1CCC[C@H]1C(=O)N[C@@H](Cc1c[nH]cn1)C(=O)N[C@H](C(=O)N[C@@H](Cc1c[nH]cn1)C(=O)N[C@@H](CC(C)C)C(=O)N[C@H](C(=O)N[C@@H](CCC(N)=O)C(=O)N[C@@H](CCC(N)=O)C(=O)N[C@@H](C)C(N)=O)C(C)C)[C@@H](C)O (stereo partly drawn) [GDF11[48-64] F51M52AA ox] (Ac-EY[Met(O)]AAQKYPHTHLVQQA-NH2) | 16.5% | 0.3% | 83.2% | 16.8% | – | –
CC(=O)N[C@@H](CCC(=O)O)C(=O)N[C@@H](Cc1ccc(O)cc1)C(=O)N[C@@H](CC[S+](C)[O-])C(=O)N[C@@H](Cc1ccccc1)C(=O)N[C@@H](CC[S+](C)[O-])C(=O)N[C@@H](CCC(N)=O)C(=O)N[C@@H](CCC(=O)O)C(=O)N[C@@H](Cc1ccc(O)cc1)C(=O)N1CCC[C@H]1C(=O)N[C@@H](Cc1c[nH]cn1)C(=O)N[C@H](C(=O)N[C@@H](Cc1c[nH]cn1)C(=O)N[C@@H](CC(C)C)C(=O)N[C@H](C(=O)N[C@@H](CCC(N)=O)C(=O)N[C@@H](CCC(N)=O)C(=O)N[C@@H](C)C(N)=O)C(C)C)[C@@H](C)O (stereo partly drawn) [GDF11[48-64] K54E ox] (Ac-EY[Met(O)]F[Met(O)]QEYPHTHLVQQA-NH2) | 18.7% | did not undergo cleavage | 81.3% | 18.7% | – | –
CC(=O)N[C@@H](CCC(=O)O)C(=O)N[C@@H](Cc1ccc(O)cc1)C(=O)N[C@@H](C)C(=O)N[C@@H](C)C(=O)N[C@@H](CC[S+](C)[O-])C(=O)N[C@@H](CCC(N)=O)C(=O)N[C@@H](CCCCN)C(=O)N[C@@H](Cc1ccc(O)cc1)C(=O)N1CCC[C@H]1C(=O)N[C@@H](Cc1c[nH]cn1)C(=O)N[C@H](C(=O)N[C@@H](Cc1c[nH]cn1)C(=O)N[C@@H](CC(C)C)C(=O)N[C@H](C(=O)N[C@@H](CCC(N)=O)C(=O)N[C@@H](CCC(N)=O)C(=O)N[C@@H](C)C(N)=O)C(C)C)[C@@H](C)O (stereo partly drawn) [GDF11[48-64] M50F51AA ox] (Ac-EYAA[Met(O)]QKYPHTHLVQQA-NH2) | 11.3% | 2.0% | 86.7% | about 13% | – | % fragment cleaved on carboxy side of H59 (Ac-...HTH, lacking LVQQA), percentage of the initial substrate ([1]; listed as M50F51AA): about 11%; % Degradation (overall % of peptide degraded upon exposure to APEH) ([1]; listed as GDF11[48-64]ox M50F51AA): 13.3%
CC(=O)N[C@@H](CCC(=O)O)C(=O)N[C@@H](C)C(=O)N[C@@H](CC[S+](C)[O-])C(=O)N[C@@H](Cc1ccccc1)C(=O)N[C@@H](CC[S+](C)[O-])C(=O)N[C@@H](CCC(N)=O)C(=O)N[C@@H](CCCCN)C(=O)N[C@@H](Cc1ccc(O)cc1)C(=O)N1CCC[C@H]1C(=O)N[C@@H](Cc1c[nH]cn1)C(=O)N[C@H](C(=O)N[C@@H](Cc1c[nH]cn1)C(=O)N[C@@H](CC(C)C)C(=O)N[C@H](C(=O)N[C@@H](CCC(N)=O)C(=O)N[C@@H](CCC(N)=O)C(=O)N[C@@H](C)C(N)=O)C(C)C)[C@@H](C)O (stereo partly drawn) [GDF11[48-64] Y49A ox] (Ac-EA[Met(O)]F[Met(O)]QKYPHTHLVQQA-NH2) | 11.5% | 10.2% | 78.3% | 21.7% | – | % fragment cleaved on carboxy side of H59 (Ac-...HTH, lacking LVQQA), percentage of the initial substrate ([1]; listed as Y49A): about 11%
Ac-EAM(ox)FM(ox)QKYPHTHLVQQA-NH2 | – | – | – | – | Q62-Q; also recorded: H59-L | –
Ac-EYAAM(ox)QKYPHTHLVQQA-NH2 | – | – | – | – | Q62-Q; also recorded: H59-L, major | –
Ac-EYAFAQKYPHTHLVQQA-NH2 | – | – | – | – | – | not cleaved (APEH): 100% intact; N.D. (not degraded) after 48 h
Ac-EYAFAQKYPHTHLVQQA-NH2 [GDF11[48-65] M50M52AA, control peptide where the two methionines were replaced with alanine residues] | – | – | 100% | – | – | –
Ac-EYM(ox)AAQKYPHTHLVQQA-NH2 | – | – | – | – | Q62-Q; also recorded: H59-L, major | –
Ac-EYM(ox)AM(ox)QKYPHTHLVQQA-NH2 | – | – | – | – | Q62-Q; also recorded: H59-L, major | –
Ac-EYM(ox)FM(ox)QEYPHTHLVQQA-NH2 | – | – | – | – | – | not cleaved (APEH): did not undergo cleavage on Q62
